Patent US4172145A, “Benzo(b)furylacetic acid derivatives to reduce inflammation” (priority 1975, dated 1979)
Read-outs that look alike come from different tables or passages of the source.

Assays:
[1] = in vivo; settings: oral, observed one week, Litchfield and Wilcoxon
Protocol: In this test, five groups, each consisting of 5 mice (male dd strain; weight: 19-21 g) and 5 rats (male Wistar strain; weight: 100-120 g) were used. […] The LD50 was calculated according to the method of Litchfield and Wilcoxon [Journal of Pharmacol. and Exper. Therap.

[2] = system: carrageenin-induced edema on the hind paw of rats; experiment: Anti-edema effect on carrageenin-induced edema on the hind paw of rats (Carrageenin Edema Method); type: in vivo, rat (male Wistar strain); settings: rat, oral, 3 hours after carrageenin; for inhibition in vivo at 75 mg/kg / inhibition in vivo at 150 mg/kg / inhibition in vivo at 300 mg/kg: read-out: Anti-edema Effect, Suppression Ratio
Protocol: The anti-edema effect was determined according to the method of Yamazaki et al [Yamazaki, H., et al; Folia Pharmacologica Japonica, 63, 302 (1967)].
In this test, a group consisting of five rats (male Wistar strain: weight 100-120 g) was used for the test and control groups. The compounds shown in Table 2 were administered orally to the rats of the test group. After one hour, 0.1 ml of a 1% carrageenin solution (phlogistic agent) was further administered to each rat by subcutaneous injection in one hind paw. To each rat of the control group, 0.1 ml of a 1% carrageenin solution was also administered in a similar manner to that for test rats. 1, 3 and 5 hours after administration of the phlogistic agent, the swelling ratio was calculated by means of the following equation: […]
Test group [formula] in which b: swelling ratio
B: volume of a hind paw without administration of phlogistic agent
B': volume of a hind paw administered with phlogistic agent
Control group [formula] in which a: swelling ratio
A: volume of a hind paw without administration of phlogistic agent
A': volume of a hind paw administered with phlogistic agent
The anti-edema effect was expressed as the suppression ratio of the edema in comparison with the control group to which the test compound had not been administered. The suppression ratio of the edema was determined 3 hours after administration of the phlogistic agent and was calculated by means of the following equation: [formula] in which a and b are as hereinbefore defined.

[3] = system: acetic acid-induced writhing reactions in mice; experiment: Analgesic activity in mice (AcOH Writhing Method); type: in vivo, mouse (male dd-strain); settings: mouse, oral; for inhibition in vivo at 150 mg/kg / inhibition in vivo at 300 mg/kg: 1 h before acetic acid, read-out: Analgesic Effect (AcOH Writhing Method), Suppression Ratio; for ED50: read-out: Analgesic Effect (AcOH Writhing Method), ED50
Protocol: In this test, three groups, each consisting of 10 mice (male dd-strain; weight: 19-21 g) were used. The compounds shown in Table 3 were administered orally to the test mice. One hour after the administration, the mice were treated with 0.1 ml/10 g of 0.7% acetic acid solution in physiological saline by intraperitoneal injection according to the method of Koster et al [Koster, R., et al; Fed. Proc., 18, 412 (1959)]. Ten minutes after the treatment, the number of writhing reactions occurring in the mice was counted.

[4] = system: pain threshold of inflamed and not inflamed paws of rats; experiment: Analgesic activity in rats (Randall-Selitto Method); type: in vivo, rat (male Wister strain); settings: Rattus norvegicus, po, P.O. 150 mg/kg, read-out: Analgesic Coefficient
Protocol: A group consisting of 6-7 rats (male Wister strain; weight: 100-120 g) was used for the test and control groups in this test. Each rat of both groups was treated with 0.1 ml of a 1% carrageenin solution as phlogistic agent by subcutaneous injection in one hind paw. 3 hours after the administration, pressure was applied to the treated paw of each rat by means of a pressing device (manufactured by Ugobasile S. A., Italy). The threshold of pain induced by press was measured with reference to the shriek and struggle according to the method of Randall and Selitto [Randall, L. O. and Selitto, J. J.; Arch, Int. Pharmocodyn., 111, 409 (1957)]. From each group 5 rats having a good response reaction, i.e. the pain threshold was not more than 70 g, were respectively selected. […] 1, 2 and 3 hours after administration, pressure was again applied to both the inflamed and not inflamed paws of the test rats and the pain threshold was measured. On the other hand, without the administration of the active compound, the pressure was applied to both the inflamed and not inflamed paws of the selected 5 rats of the control group and the pain threshold was measured. The inflamed paws of the test and control groups were compared with each other. Also the not inflamed paws of the both groups were compared with each other.
The analgesic coefficient was calculated by means of the following equation, and the larger analgesic coefficient the better analgesic activity. [formula] in which X: analgesic coefficient (%)
P1 : threshold (g) of the test rats administered with active compounds
P2 : threshold (g) of the control rats without administration of active compound

[5] = in vivo; settings: rat, po
Protocol: A test group consisting of 10-15 rats (male Wistar strain; weight: 180-220 g) was used in this test. Each rat was fasted for 20 hours, but water was allowed ad libitum. The compounds shown in Table 5 were administered orally. After a 20-hour interval during which the rats were not fed but were allowed water, each rat was administered under ether anesthesia with 0.5 ml per 100 g body weight of a 5% solution of pontamine sky blue 6BX in saline (pH 7.2--adjusted with 0.5 N HCl) by intravenous injection. 15 minutes after administration each rat was killed. The stomach was removed and maintained in a 1% formalin solution. After about 2 hours, the stomach was opened along the greater curvature and the length of lesions (dark blue areas against pale blue background) in the glandular portion was measured under a dissecting microscope (10×) provided with a square grid. The sum of the lengths (mm) of lesions was used as ulcer index.

[6] = Eur. J. Med. Chem. 1975-10, N. 2, p. 182-186; cited from earlier work
[7] = Eur. J. Med. Chem. 1975-10, N. 2, p. 182-186; cited from earlier work; remark: listed apart in the source
[8] = mouse, read-out: Acute Toxicity (P.O.), LD50, Mouse
[9] = rat, read-out: Acute Toxicity (P.O.), LD50, Rat

| SMILES | LD50 at 168 h [1, 8] | LD50 at 168 h [1, 9] | inhibition in vivo at 75 mg/kg [2] | inhibition in vivo at 150 mg/kg [2] | inhibition in vivo at 300 mg/kg [2] | ED50 [2] | inhibition in vivo at 150 mg/kg [3] | inhibition in vivo at 300 mg/kg [3] | ED50 [3] | change in vivo at 150 mg/kg ([4]; 1 h, inflamed paw, 1 hr.) | change in vivo at 150 mg/kg ([4]; 1 h, not inflamed paw, 1 hr.) | change in vivo at 150 mg/kg ([4]; 2 h, inflamed paw, 2 hr.) | change in vivo at 150 mg/kg ([4]; 2 h, not inflamed paw, 2 hr.) | change in vivo at 150 mg/kg ([4]; 3 h, inflamed paw, 3 hr.) | change in vivo at 150 mg/kg ([4]; 3 h, not inflamed paw, 3 hr.) | TD50 at 20 h [5] | anti-inflammatory activity versus phenylbutazone [6] | toxicity versus phenylbutazone [7] |
| --- | --- | --- | --- | --- | --- | --- | --- | --- | --- | --- | --- | --- | --- | --- | --- | --- | --- | --- |
| Cc1ccc2oc(CC(=O)O)c(C)c2c1 [Test Compound 4, 3,5-dimethyl-2-benzo(b)furylacetic acid] | 1310 mg/kg | > 1000 mg/kg | 43.8% | 56.2% | 70.9% | 100 mg/kg | 11.2% | 41.4% | 350 mg/kg | 35.4% | 0% | 18.8% | 0% | 7.1% | 0% | > 300 mg/kg | – | – |
| Cc1c(CC(=O)O)oc2ccc(F)cc12 [Test Compound 5, 5-fluoro-3-methyl-2-benzo(b)furylacetic acid] | 1750 mg/kg | > 1000 mg/kg | 37.9% | 60% | 71.9% | 105 mg/kg | 26% | 41.4% | 380 mg/kg | 38.6% | 0% | 23.5% | 0% | 19.3% | 0% | > 300 mg/kg | – | – |
| O=C(O)Cc1cc2cc(Cl)ccc2o1 [chloro-5 benzoful-2-acetate] | – | – | – | – | – | – | – | – | – | – | – | – | – | – | – | – | lower anti-inflammatory activity | minor toxicity than phenylbutazone |
| O=C(O)c1cc2cc(Cl)ccc2o1 [chloro-5-benzo(b)furyl-2 carboxylic acid] | – | – | – | – | – | – | – | – | – | – | – | – | – | – | – | – | lower anti-inflammatory activity | minor toxicity than phenylbutazone |
| COc1ccc2oc(CC(=O)O)cc2c1 [methoxy-5 benzo(b)furyl-2-acetate] | – | – | – | – | – | – | – | – | – | – | – | – | – | – | – | – | lower anti-inflammatory activity | minor toxicity than phenylbutazone |
